# Reference: paper PMC11288129, “Diversely evolved xibalbin variants from remipede venom inhibit potassium channels and activate PKA-II and Erk1/2 signaling” (BMC Biology, 2024)
# Positions of bridges follow the written chain, without caps; N, C: chain ends. No end group written: not given here.
# System: Kv1.3
# Experiment: TEVC inhibition, Kv1.3
# Format: cell-based, human
# Parameters: unit not given here
# Details: 1 µM
# Description: For the expression of Kv channels rat Kv1.1 (GenBank accession number: NM_173095 [88, 89]), rKv1.2 (NM_012970 [90, 91]), human Kv1.3 (NM_002232 [92, 93]), rKv1.4 (NM_012971 [94, 95]), rKv1.6 (NM_023954 [96, 97]), hKv2.1 (NM_004975 [98, 99]), hKv3.1 (NM_004976 [100, 101]), rKv4.2 (NM_031739 [102, 103]), hKv10.1 (NM_172362 [104, 105]), hERG1 [Kv11.1, (NM_000238 [106, 107])], and Shaker IR [from Drosophila melanogaster, (NM_167595 [108, 109])], Nav channels [rNav1.2 (NM_012647 [42, 110]), rNav1.4 (NM_013178 [111, 112]), hNav1.5 (NM_198056 [113, 114]), mNav1.6 (NM_001077499 [115, 116]), BgNav [from Blattella germanica, (DQ466887 [117, 118])] and the auxiliary subunits rβ1 (NM_001271045 [119, 120]), hβ1 (NM_001037 [121, 122]), and TipE [from D. melanogaster, (NM_079196 [109, 123])], and Cav channels hCav3.1 [124, 125], hCav3.2 [126, 127], and hCav3.3 [128, 129] in Xenopus oocytes, the linearized plasmids were transcribed using the T7 or SP6 mMESSAGEmMACHINE transcription kit (Ambion, Austin, TX, USA). Mature female animals were purchased from Nasco (Fort Atkinson, USA) and were housed in the Aquatic Facility (KU Leuven) in compliance with the regulations of the European Union (EU) concerning the welfare of laboratory animals as declared in Directive 2010/63/EU. The use of X. laevis oocytes was approved by the Animal Ethics Committee of the KU Leuven with the license number P186/2019. Stage V–VI oocytes were collected from anesthetized female X. laevis frog as previously described, with the frogs anesthetized by placement in 0.1% tricaine solution (amino benzoic acid ethyl ester; Merck, USA). Oocyte microinjection was performed using a microinjector (Drummond Scientifc®, USA), with a programmed cRNA injection volume of 4—50 nL, depending on the channel subtype. The oocytes were incubated in ND96 solution (96 mM NaCl, 2 mM KCl, 1.8 mM CaCl2, 2 mM MgCl2, and 5 mM HEPES, pH 7.4), supplemented with 50 mg/l gentamicin sulfate.
# Electrophysiological measurements were performed at room temperature (18–22 °C) using the two-electrode voltage clamp (TEVC) technique. Data were obtained using a GeneClamp 500 amplifier (Axon Instruments, USA), and Clampex9 software (Axon Instruments), responsible for data acquisition and storage. Glass micropipettes were produced using glass capillaries (borosilicate WPI 1B120-6) and drawn in a WPI (World Precision Instruments, USA) manual stretcher. The bath and perfusion solutions were either the previously described ND96 (Nav and Kv channels) or calcium-free ND96 supplemented with 10 mM BaCl2 (Cav channels).
# Whole-cell currents of oocytes were recorded 1 to 3 days after injection. Current and voltage electrodes were filled with 3 M KCl and their resistance was adjusted from 0.7 to 2.0 MΩ. Currents were sampled at 20 kHz (Nav channels) and 10 kHz (Kv and Cav channels) and filtered using a four-pole Bessel low-pass Bessel filter, at 1 kHz for sodium, and […] for potassium and calcium, except for the hERG ion channel, in which the currents were filtered at 1 kHz. Leak subtraction was performed using a -P/4 protocol. Kv1.x currents were evoked by 500 ms depolarizations to 0 mV followed by a 500-ms pulse to − 50 mV, from a holding potential of − 90 mV. Kv2.1, Kv3.1, and Kv4.2 currents were elicited by 500 ms pulses to + 20 mV from a holding potential of − 90 mV. Current traces of Kv10.1 were elicited by 2 s depolarization to 0 mV, from a holding potential of − 90 mV. Current traces of hERG1 channel were elicited by applying a + 40 mV prepulse for 2 s followed by a step of − 120 mV for 2 s. Sodium current traces were evoked by a 100 ms depolarization to 0 mV, from a holding potential of − 90 mV. The current–voltage (IV) relationships were determined by 100-ms step depolarizations between − 90 and + 40 mV, using 5 mV increments. […]
Sequence,"Inhibition data, Kv1.3 (replicate 1)","Inhibition data, Kv1.3 (replicate 2)","Inhibition data, Kv1.3 (replicate 3)","Inhibition data, Kv1.3 (replicate 4)"
"KRSCIRRFGRCDHRPNDCCYNSSCRCNLWGSNCRCQRMGLFQKWGK (disulfide 4-19, 11-24, 18-35, 26-33) [xib13]",61.2,57.8,41.4,53.4
"RLFCIRHHKYCGHRPKRCCSGLFCRCNTFGTNCRCQSKGALGKLI (disulfide 4-19, 11-24, 18-35, 26-33) [xib1]",59.5,65.4,60.6,62.3
